From patent US4620871A (priority 1980, dated 1986)

Experiments:
[1] = tested on: Libelulla wheat variety; assay: Grain yield of Libelulla wheat (Example 31); type: in vivo; conditions: for Weight of grains, increase: in vivo; for Weight of grains collected from 100 ears: seed 2 kg/ha + soil 2 kg/ha, control 215.79
Description: Two wheat varieties, Libelulla and Mexican 226 K, were utilized in the tests performed under large-parcel field conditions. The sowing seeds were coated with the compositions of the invention according to the wet powder seed dressing technique; a dosis of 2 kg/ha was applied.
The soil was also treated with the compositions according to the invention directly before sowing. A dose of 2 kg/ha was applied.
The grain yields of the wheat varieties, harvested from the treated and control parcels, were measured, and the total nitrogen content and protein nitrogen content of the grains were determined.

[2] = tested on: Tobacco callus; assay: Growth of tobacco callus vs kinetin (Example 14); type: cell-based; conditions: 2 ppm active agent
Description: An untreated culture medium served as control. Tobacco callus was grown on the treated and untreated culture media (incubation period: 3 weeks), and the daily growth, the increase in cell number and the frequency of mitosis were measured according to the method of Skoog.
The test described in Example 13 was repeated so that a culture medium containing 1 ppm of kinetin was used as control, and the compositions according to the invention were applied in amounts corresponding to 2 ppm of active agent.

[3] = tested on: Soybean; assay: Stimulation of photosynthesis, 14CO2 incorporation, soybean leaf discs (Example 20); conditions: Glycine max, foliar, 2 hours
Description: The compositions according to the invention were diluted with distilled water to an active agent content of 200 ppm, and leaf discs of alfalfa, soybean, bean and maize, weighing 200 mg each, were floated on the surfaces of the resulting solutions for 2 hours. Thereafter the treated leaf discs were place into the assimilation chamber of an appropriate measuring apparatus, and a known amount of radioactive carbon dioxide gas (^14 CO2) was introduced into the assimilation chamber from a reservoir by means of a gas feeder for 0.5 hours under carefully controlled illumination conditions. Thereafter the leaf discs were frozen with liquid nitrogen, triturated with 50% by weight perchloric acid in a potter homogenizer, and stock solutions were prepared from the resulting mixtures. The specific radioactivities of the stock solutions were determined by liquid scintillation.
(§1) In the control test untreated leaf discs were exposed to labelled carbon, dioxide, and the amount of carbon dioxide incorporated under such conditions was regarded as standard.

[4] = tested on: Soybean; assay: Inhibition of the decomposition of chlorophyll in soybean leaf segments; conditions: 4 days dark
Description: (§2) The active agent to be tested was dissolved in distilled water to form a 200 ppm solution, and leaf segments of the plants under examination, weighing 200 mg, were floated on the surface of the solution for 4 days in the dark. Thereafter chlorphyll was extracted from the leaf segments with methanol.
(§3) To determine the starting state, chlorophyll was extracted with methanol from untreated leaf segments weighing 200 mg. In the control test the leaf segments, weighing 200 mg, were floated on the surface of distilled water for 4 days in the dark, and then chlorophyll was extracted from the leaf segments with methanol.
(§4) The chlorophyll concentration was determined by measuring the extinction of the extracts at 665 mμ.

[5] = tested on: leaves of Pinto bean; assay: Stimulation of photolytic activity, HTO, Pinto bean (Example 23); conditions: 18 hours, zeatin 20, kinetin/benzyladenine 30, others 200 ppm; for Photolytic activity: control 7.64
Description: The stimulating effects of an endogeneous cytokinin (zeatin), synthetic cytokinins (kinetin, benzyladenine) and the cytokinin-like regulators according to the invention exerted on the photolytic activity connected to the decomposition of HTO were examined on leaves of Pinto bean. The leaf discs were floated for 18 hours on solutions of the substances under examination, and then exposed to a radioactivity of 200 μCi/100 ml for one hour to effect photolysis of HTO.

[6] = tested on: Soybean; assay: Total and protein nitrogen content of soybean (Example 39); type: in vivo
From the text: The effects of 1,4-dihydroxyphthalazine and salts thereof exerted on the total nitrogen content and protein nitrogen content of soybean were examined as described in Example 27. The plants were sprayed with the compositions according to the invention at the beginning of the flowering of the apical cluster.

[7] = tested on: Maize; assay: Stimulation of photosynthesis, 14CO2 incorporation, maize leaf discs (Example 20); conditions: Zea mays, foliar, 2 hours
Description: The specific radioactivities of the stock solutions were determined by liquid scintillation.
as §1

[8] = tested on: maize for silage; assay: Maize for silage field tests 1979, Boly (Example 28); type: in vivo
From the text: The effects of the cytokinin-like regulators on the crop yield, crude protein content and real protein content of maize for silage, observed under field conditions in the tests performed in 1979 at the Agricultural Combinate of Boly, Hungary, are listed in Table 20.

[9] = tested on: Mixed soybean/sunflower cultures; assay: Nitrogen content of mixed soybean/sunflower culture (Example 27); type: in vivo; conditions: 3 x 2 kg/ha; for Protein nitrogen content: control 2.27; for Total nitrogen content: control 2.56; for Protein nitrogen content in % of the total nitrogen content: control 65.2
Description: Mixed soybean/sunflower cultures, to be harvested when green, were treated with the compositions according to the invention under large-parcel field conditions. The tests were performed in fourfold replications on parcels 1 hectare in area, each. The compositions were diluted with water and sprayed onto the parcels three times, in doses of 2 kg/ha, each. The first treatment was performed when the soil was already completely covered by green plants, the second treatment was performed two weeks later, and then the third after two additional weeks. The green plants were harvested from the treated and control parcels, and the total nitrogen content and protein nitrogen content were determined.

[10] = tested on: Barley; assay: Inhibition of the decomposition of chlorophyll in barley leaf segments; conditions: 4 days dark
Description: as §2, §3, §4

[11] = tested on: Maize; assay: Inhibition of the decomposition of chlorophyll in maize; conditions: 200 ppm, 100 mg green plant, control 0.65
Description: as §3, with “Thereafter chlorphyll was extracted from the leaf segments with methanol. To” for “To”, “methanol. […] For alfalfa and maize the chlorphyll contents of 100 mg of green plant were examined.” for “methanol.”

[12] = tested on: Alfalfa; assay: Inhibition of the decomposition of chlorophyll in alfalfa; conditions: 200 ppm, 100 mg green plant, control 0.78
Description: as §3, with “Thereafter chlorphyll was extracted from the leaf segments with methanol. To” for “To”, “methanol. […] For alfalfa and maize the chlorphyll contents of 100 mg of green plant were examined.” for “methanol.”

[13] = tested on: bean leaves; assay: Incorporation of Gly-2-14C in bean leaves (Example 36); conditions: 18 hours
Description: (§5) The biological activities of cytokinin-like factors can be well characterized by measuring the intensity of the photosynthetic carbon dioxide fixation and the incorporation of labelled amino acids into the TCA-insoluble protein fraction. The intensity of photosynthetic carbon dioxide fixation was determined on maize leaves, utilizing ^14 CO2, whereas the incorporation of amino acids was examined on bean leaves, utilizing […]-^14 C.

[14] = tested on: maize leaves; assay: Fixation of 14CO2 in maize leaves (Example 36); conditions: 18 hours
Description: as §5

N=C(N)N.N=C(N)N.Oc1nnc(O)c2ccccc12 [1,4-dihydroxyphthalazine diguanidine salt] was tested, and the “Weight of grains, increase” value [1] was 7%, the “Weight of grains collected from 100 ears” value [1] was 232.35 g and the “Dry weight of the callus” value ([2]; kinetin 1 ppm) was 170.92 mg. The Speed of growth ([2]; kinetin 1 ppm) was 98.23, the activity at 2 ppm ([2]; Nicotiana tabacum, 504 h, kinetin 1 ppm = 100, read-out: Speed of growth, Index %) was 98.2% and the activation at 200 ppm [3] was 67%. It also gave a Chlorophyll ([4]; 200 ppm, control 3.5) of 5.4 mg, an activation at 200 ppm ([4]; Glycine max, foliar, 96 h, read-out: Promotion) of 54% and a Stimulation [5] of 79%. For the same compound, the Photolytic activity [5] was 13.72 dpm/mg of glucose, the Protein nitrogen content ([6]; control 1.9) was 3.9 % of dry substance and the Total nitrogen content ([6]; control 2.6) was 4.7 % of dry substance. For the same compound, the “Protein nitrogen content, increase” value ([6]; in vivo) was 105.3%, the “Total nitrogen content, increase” value ([6]; in vivo) was 81.0% and the activation at 200 ppm [7] was 12%. The P2O5 content ([8]; control 7.5) was 9.5 % of dry substance, the Crude protein content ([8]; control 13.2) was 16.0 % of dry substance and the Green weight ([8]; control 310.2) was 361.3 q/ha. For the same compound, the “Crude protein content, increase” value ([8]; in vivo) was 21.3%, the “Green weight, increase” value ([8]; in vivo) was 15.5% and the “P2O5 content, increase” value ([8]; in vivo) was 27.2%. The “Protein nitrogen content, stimulation” value [9] was 39.6%, the “Total nitrogen content, stimulation” value [9] was 34.7% and the Protein nitrogen content [9] was 3.17 % of dry weight. For the same compound, the Total nitrogen content [9] was 3.45 % of dry weight, the “Protein nitrogen content in % of the total nitrogen content” value [9] was 94.8% and the Chlorophyll ([10]; 200 ppm, control 3.7) was 9.7 mg. It also gave an activation at 200 ppm ([10]; Hordeum vulgare, foliar, 96 h, read-out: Promotion) of 162%.

CCC[n+]1c[nH]c2ccccc21.[Br-] [N--(n-Propyl)-benzimidazolium bromide, N-(n-propyl)-benzimidazolium bromide] was tested, and the “Weight of grains, increase” value [1] was 65%, the “Weight of grains collected from 100 ears” value [1] was 357.73 g and the Chlorophyll content [11] was 0.82 mg. The Chlorophyll content [12] was 0.96 mg, the “Incorporation of Gly-2-14C” value ([13]; fresh weight, control 3.52) was 4.96 μCi/g and the “Incorporation of Gly-2-14C, %” value ([13]; increase over control) was 41%. The Stimulation [5] was 84%, the Photolytic activity [5] was 14.08 dpm/mg of glucose and the “Fixation of 14CO2” value ([14]; fresh weight, control 5.72) was 10.52 μCi/g. For the same compound, the “Fixation of 14CO2, %” value ([14]; increase over control) was 84%, the “Protein nitrogen content, stimulation” value [9] was 21.1% and the “Total nitrogen content, stimulation” value [9] was 9.7%. For the same compound, the Protein nitrogen content [9] was 2.75 % of dry weight, the Total nitrogen content [9] was 2.80 % of dry weight and the “Protein nitrogen content in % of the total nitrogen content” value [9] was 98.9%.
